The target of one assay is T1, hSARM1 (Homo sapiens, UniProt Q6SZW1).
T1 sequence (Q6SZW1 28-724): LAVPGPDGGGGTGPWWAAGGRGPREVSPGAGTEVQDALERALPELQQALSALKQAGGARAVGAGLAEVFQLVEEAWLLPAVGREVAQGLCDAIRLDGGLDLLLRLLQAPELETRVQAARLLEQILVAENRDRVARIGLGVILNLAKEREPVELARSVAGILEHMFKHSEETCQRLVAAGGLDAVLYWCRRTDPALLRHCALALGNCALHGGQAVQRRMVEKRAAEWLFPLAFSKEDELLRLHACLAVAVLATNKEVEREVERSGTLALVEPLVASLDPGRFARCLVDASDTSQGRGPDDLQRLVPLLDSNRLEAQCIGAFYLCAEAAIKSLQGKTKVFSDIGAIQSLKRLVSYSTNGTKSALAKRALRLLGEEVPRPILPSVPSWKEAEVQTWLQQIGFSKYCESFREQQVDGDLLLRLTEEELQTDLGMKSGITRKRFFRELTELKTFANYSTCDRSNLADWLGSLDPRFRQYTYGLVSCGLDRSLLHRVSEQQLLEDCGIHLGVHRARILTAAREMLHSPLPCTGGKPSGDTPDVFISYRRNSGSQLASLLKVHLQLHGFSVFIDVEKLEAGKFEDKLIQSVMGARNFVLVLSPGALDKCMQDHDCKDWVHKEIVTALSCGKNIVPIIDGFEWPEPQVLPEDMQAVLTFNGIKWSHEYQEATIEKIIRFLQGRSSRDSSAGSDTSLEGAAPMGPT
Kind of assay: Human SARM1 activity measurement in HEK293 cells transiently transfected with ΔN-hSARM1 (PC6 fluorescent probe). Format: cell-based. More on the design: expressed in transfected cells; host or cells: HEK293, pcDNA3 expression vector. Put shortly: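 HEK293 cells in nicotinamide-free DMEM with 5 μM nicotinamide, transiently transfected with mitochondrial-targeting-deleted ΔN-hSARM1; PC6 base-exchange fluorescent probe (50 μM) plus compound (30 μM) added ~8 h post-transfection. Fluorescence (ex 405/em 525 nm) read ~48 h from transfection; inhibition % versus transfected DMSO control, untransfected background subtracted.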

The subject of assay [1] is primary cultured cells of mouse fetus-derived dorsal root ganglia (DRGs). Kind of assay: Suppression of axonal degeneration after axotomy in DRG explant culture. The settings on record: minimum concentration at which axonal degeneration was suppressed (DI 0.3 or less), 24 hours after axotomy; for minimal effective concentration: Mus musculus, read-out: Evaluation on protection against degeneration. Format: cell-based. The procedure, abridged:
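Embryonic ICR mouse DRG explants were cultured 7–8 days in nicotinamide-free neuronal medium with NGF, then axotomized by removing the cell bodies. Compound (100 pM–10 µM final, 0.1% DMSO) was added within 30 min, and neurites were imaged 24 h later. The result is the lowest concentration giving degeneration index ≤0.3.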

Assay [2] concerns the target T2, nicotinamide phosphoribosyl transferase (NAMPT) (Homo sapiens, UniProt P43490).
T2 construct: purchased Medical & Biological Laboratories Co., Ltd. (MBL)
Kind of assay: NAMPT activity measurement (NMN fluorescence detection). Format: biochemical. The following applies: NAMPT recombinant protein, 10 µM Nam; for IC50: read-out: Evaluation on NAMPT inhibitory. The method, then:
The compound of the present invention was evaluated for the ability to influence the activity of nicotinamide phosphoribosyl transferase (NAMPT) which is an enzyme that metabolizes nicotinamide (Nam), not the target SARM1.
The enzymatic reaction of NAMPT was carried out by adding NAMPT recombinant protein (manufactured by Medical & Biological Laboratories Co., Ltd. (MBL)) to a reaction solution containing the substrate Nam, phosphoribosylpyrophosphate (PRPP), ATP, and the like (composition: […] (pH = 7.4), 2 µM ATP, 0.5 µM PRPP, 0.02% BSA, 2 µM DTT, 1.2 µM MgCl2, and 10 µM Nam). The amount of the reaction product NMN was detected by detecting the fluorescent signal of a fluorescent substance obtained through the reaction of 2-acetylbenzofuran with NMN using SpectraMax M2 (Molecular Devices) (excitation: 421 nm, fluorescence: 480 nm) (Moriya et al, Chemical Communications 2013, 49 11500). The test compound was added at final concentrations of 10 µM, 3 µM, 1 µM, 300 nM, 100 nM, 30 nM, 10 nM, and 3 nM to the NMN synthesis reaction system described above. The NMN-derived fluorescent signal was normalized against a control group and plotted as the function of the test compound concentrations, and the compound was evaluated for its NAMPT inhibitory effect by calculating IC50.
The IC50 value was evaluated as ∘ for ≥1 µM and as Δ for ≥0.1 µM.

Where [3] appears, read: inhibition rate, compound 30 µM, PC6 50 µM, HEK293 cells expressing ΔN-hSARM1, approximately 48 hours from transfection, read-out: Evaluation on hSARM1 inhibitory.

Results on 31 compounds are retold here after EP4793271A1, “NEUROPROTECTIVE AGENT” (National Center of Neurology and Psychiatry, priority 2023, dated 2025).

Molecules are shown by their SMILES. Read-outs that look alike come from different tables or passages of the source.

T2 sequence (P43490 whole entry, species assumed): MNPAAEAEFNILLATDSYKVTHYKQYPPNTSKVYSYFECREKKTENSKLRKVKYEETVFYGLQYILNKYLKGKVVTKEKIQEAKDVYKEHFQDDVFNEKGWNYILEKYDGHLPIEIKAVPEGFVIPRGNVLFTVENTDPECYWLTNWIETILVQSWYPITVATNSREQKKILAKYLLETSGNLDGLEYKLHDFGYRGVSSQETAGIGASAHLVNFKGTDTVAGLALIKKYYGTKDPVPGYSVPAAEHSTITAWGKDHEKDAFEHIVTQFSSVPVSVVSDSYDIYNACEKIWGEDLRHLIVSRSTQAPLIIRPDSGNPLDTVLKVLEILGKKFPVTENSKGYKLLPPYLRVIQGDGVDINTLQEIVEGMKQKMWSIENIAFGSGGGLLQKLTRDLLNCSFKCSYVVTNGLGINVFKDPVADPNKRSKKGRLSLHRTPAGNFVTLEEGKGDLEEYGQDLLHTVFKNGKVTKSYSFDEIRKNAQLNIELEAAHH

For the compound `O=C(NCc1ccc(NC(=O)c2ccc3ncccc3c2)nc1)c1cccnc1` [Compound 122], at hSARM1 (setting [3]), the inhibition at 30 µM is over 75%. The minimal effective concentration in assay [1] was at most 0.01 µM. The “Evaluation on NAMPT inhibitory” value in assay [2] is on record as “○”.
Turning to `O=C(Cc1ccc2ccccc2c1)Nc1ccc(CNC(=O)c2cccnc2)cn1` [Compound 123], the inhibition at 30 µM at hSARM1 (setting [3]) was over 75%. For the same compound, in assay [1], the minimal effective concentration is at most 0.01 µM. Moreover, the IC50 in assay [2] is at least 100 nM.
Turning to `O=C(NCc1ccc(NC(=O)c2ccncc2)nc1)c1cccnc1` [Compound 124], the inhibition at 30 µM on hSARM1 (setting [3]) was over 75%. In addition, the minimal effective concentration in assay [1] is at most 0.01 µM. Besides, the “Evaluation on NAMPT inhibitory” value in assay [2] is “○”.
`O=C(NCc1ccc(NC(=O)c2ccccn2)nc1)c1cccnc1` [Compound 125]: at hSARM1 (setting [3]), the inhibition at 30 µM is over 75%. The minimal effective concentration in assay [1] is at most 0.01 µM. Besides, the IC50 in assay [2] was at least 100 nM.
Regarding `O=C(NCc1ccc(NC(=O)c2cnc3ccccc3c2)nc1)c1cccnc1` [Compound 126], on hSARM1 (setting [3]), the inhibition at 30 µM was over 75%. In assay [1], the minimal effective concentration is at most 0.01 µM. The IC50 in assay [2] is at least 100 nM.
The corresponding values for `O=C(NCc1ccc(NC(=O)c2ccc3ccccc3c2)nc1)c1cccnc1` [Compound 127] are over 75%, at most 0.01 µM and at least 100 nM.
On to `O=C(NCc1ccc(NC(=O)c2ccc(-c3ccccc3)cc2)nc1)c1cccnc1` [Compound 128], for which the inhibition at 30 µM at hSARM1 (setting [3]) was over 75%. Moreover, the minimal effective concentration in assay [1] is at most 0.01 µM. The “Evaluation on NAMPT inhibitory” value in assay [2] is “○”.
With `COc1ccc(C(=O)Nc2ccc(CNC(=O)c3cccnc3)cn2)cc1` [Compound 129], the inhibition at 30 µM on hSARM1 (setting [3]) was over 75%. Further, the minimal effective concentration in assay [1] was at most 0.01 µM. Besides, the “Evaluation on NAMPT inhibitory” value in assay [2] is reported as “○”.
The corresponding values for `Cc1ccccc1C(=O)Nc1ccc(CNC(=O)c2cccnc2)cn1` [Compound 130] are over 75%, at most 0.01 µM and “○”.
Take `CCc1ccc(C(=O)Nc2ccc(CNC(=O)c3cccnc3)cn2)cc1` [Compound 131]: at hSARM1 (setting [3]), the inhibition at 30 µM is over 75%. For the same compound, in assay [1], the minimal effective concentration was at most 0.01 µM. The “Evaluation on NAMPT inhibitory” value in assay [2] was “○”.
The corresponding values for `O=C(NCc1ccc(NC(=O)c2cccc(Cl)c2)nc1)c1cccnc1` [Compound 132] are over 75%, at most 0.01 µM and “○”.
The corresponding values for `O=C(NCc1ccc(NC(=O)c2ccccc2F)nc1)c1cccnc1` [Compound 133] are over 75%, at most 0.01 µM and “○”.
The corresponding values for `Cc1ccc(C(=O)Nc2ccc(CNC(=O)c3cccnc3)cn2)cc1C` [Compound 134] are over 75%, at most 0.01 µM and “○”.
With `Cc1ccc(C(=O)Nc2ccc(CNC(=O)c3cccnc3)cn2)c(C)c1` [Compound 135], the inhibition at 30 µM at hSARM1 (HEK293, read-out: Evaluation on hSARM1 inhibitory) was over 75%. Besides, in assay [1], the “Evaluation on protection against degeneration” value was “A (A ≤ 0.01 µM)”. Also, the “Evaluation on NAMPT inhibitory” value in assay [2] is “○”.
In the case of `Cc1cc(C)cc(C(=O)Nc2ccc(CNC(=O)c3cccnc3)cn2)c1` [Compound 136], on hSARM1 (setting [3]), the inhibition at 30 µM was over 75%. Besides, the minimal effective concentration in assay [1] is at most 0.01 µM. For the same compound, the “Evaluation on NAMPT inhibitory” value in assay [2] is reported as “○”.
On the same counts, the results for `O=C(NCc1ccc(NC(=O)c2ccc(F)c(F)c2)nc1)c1cccnc1` [Compound 137] are over 75%, at most 0.01 µM and “○”.
The corresponding values for `O=C(NCc1ccc(NC(=O)c2cc(F)cc(F)c2)nc1)c1cccnc1` [Compound 138] are over 75%, at most 0.01 µM and “○”.
For `O=C(NCc1ccc(NC(=O)c2ccc(F)cc2F)nc1)c1cccnc1` [Compound 139], the inhibition at 30 µM on hSARM1 (setting [3]) was over 25%. In addition, in assay [1], the minimal effective concentration was at most 0.01 µM. Also, the “Evaluation on NAMPT inhibitory” value in assay [2] is recorded as “○”.
Take `O=C(NCc1ccc(NC(=O)c2ccccc2)nc1)c1cnc2ccccc2c1` [Compound 140]: at hSARM1 (setting [3]), the inhibition at 30 µM was over 10%. For the same compound, the minimal effective concentration in assay [1] was 0.1 to 1 µM. The “Evaluation on NAMPT inhibitory” value in assay [2] is “○”.
As to `Cc1ccc(CC(=O)Nc2ccc(CNC(=O)c3cccnc3)cn2)cc1` [Compound 143], on hSARM1 (setting [3]), the inhibition at 30 µM is over 75%. The minimal effective concentration in assay [1] was at most 0.01 µM. In addition, the IC50 in assay [2] was at least 100 nM.
On the same counts, the results for `O=C(Cc1ccc(F)cc1)Nc1ccc(CNC(=O)c2cccnc2)cn1` [Compound 144] are over 75%, at most 0.01 µM and at least 100 nM.
Turning to `O=C(NCc1ccc(CNC(=O)c2cccnc2)nc1)c1cccnc1` [Compound 146], the inhibition at 30 µM at hSARM1 (setting [3]) is over 50%. Moreover, the minimal effective concentration in assay [1] lay in the range of 0.01 to 0.1 µM. The “Evaluation on NAMPT inhibitory” value in assay [2] is reported as “○”.
On the same counts, the results for `O=C(NCc1cccc(CNC(=O)c2cccnc2)n1)c1ccccc1` [Compound 149] are over 25%, 0.1 to 1 µM and “○”.
The corresponding values for `O=C(NCc1cccc(CNC(=O)c2cccnc2)n1)c1cccnc1` [Compound 150] are over 25%, 0.1 to 1 µM and “○”.
On the same counts, the results for `O=C(NCc1cccc(CNC(=O)c2cccnc2)n1)c1ccncc1` [Compound 151] are over 25%, 0.1 to 1 µM and “○”.
As to `O=C(NCc1ccc(CNC(=O)c2ccccc2)nc1)c1cccnc1` [Compound 153], the inhibition at 30 µM on hSARM1 (setting [3]) was over 75%. The minimal effective concentration in assay [1] is 0.01 to 0.1 µM. Besides, the “Evaluation on NAMPT inhibitory” value in assay [2] is on record as “○”.
In the case of `N#Cc1ccc(CC(=O)Nc2ccc(CNC(=O)c3cccnc3)cn2)cc1` [Compound 154], the inhibition at 30 µM at hSARM1 (setting [3]) is over 75%. For the same compound, the minimal effective concentration in assay [1] is at most 0.01 µM. Further, the IC50 in assay [2] is at least 100 nM.
On to `CCCC(=O)Nc1ccc(CNC(=O)c2cccnc2)cn1` [Compound 158], for which the inhibition at 30 µM at hSARM1 (setting [3]) is over 25%. Besides, the minimal effective concentration in assay [1] was at most 0.01 µM. In addition, the “Evaluation on NAMPT inhibitory” value in assay [2] is on record as “○”.
The corresponding values for `CCCCC(=O)Nc1ccc(CNC(=O)c2cccnc2)cn1` [Compound 159] are over 50%, at most 0.01 µM and “○”.
Take `CCCCCC(=O)Nc1ccc(CNC(=O)c2cccnc2)cn1` [Compound 160]: at hSARM1 (setting [3]), the inhibition at 30 µM is over 75%. Also, the minimal effective concentration in assay [1] is at most 0.01 µM. Moreover, in assay [2], the IC50 was at least 100 nM.
As to `CCC(C)C(=O)Nc1ccc(CNC(=O)c2cccnc2)cn1` (stereo not drawn) [Compound 161], at hSARM1 (setting [3]), the inhibition at 30 µM was over 10%. For the same compound, the minimal effective concentration in assay [1] was at most 0.01 µM. For the same compound, the “Evaluation on NAMPT inhibitory” value in assay [2] is reported as “○”.
